This note sets out measurements from patent US7498409B2, “Screening assay for TLR7, TLR8 and TLR9 agonists and antagonists” (Schering Corporation, priority 2005, dated 2009).

Data set [1] concerns the target T1, mutant TLR7 containing a deletion in the second LRR (Homo sapiens, UniProt Q9NYK1, DEL102-106).
T1 construct: expressed in transfected cells; host or cells: HEK 293
T1 sequence (Q9NYK1 with tags, fused parts or gaps DEL102-106): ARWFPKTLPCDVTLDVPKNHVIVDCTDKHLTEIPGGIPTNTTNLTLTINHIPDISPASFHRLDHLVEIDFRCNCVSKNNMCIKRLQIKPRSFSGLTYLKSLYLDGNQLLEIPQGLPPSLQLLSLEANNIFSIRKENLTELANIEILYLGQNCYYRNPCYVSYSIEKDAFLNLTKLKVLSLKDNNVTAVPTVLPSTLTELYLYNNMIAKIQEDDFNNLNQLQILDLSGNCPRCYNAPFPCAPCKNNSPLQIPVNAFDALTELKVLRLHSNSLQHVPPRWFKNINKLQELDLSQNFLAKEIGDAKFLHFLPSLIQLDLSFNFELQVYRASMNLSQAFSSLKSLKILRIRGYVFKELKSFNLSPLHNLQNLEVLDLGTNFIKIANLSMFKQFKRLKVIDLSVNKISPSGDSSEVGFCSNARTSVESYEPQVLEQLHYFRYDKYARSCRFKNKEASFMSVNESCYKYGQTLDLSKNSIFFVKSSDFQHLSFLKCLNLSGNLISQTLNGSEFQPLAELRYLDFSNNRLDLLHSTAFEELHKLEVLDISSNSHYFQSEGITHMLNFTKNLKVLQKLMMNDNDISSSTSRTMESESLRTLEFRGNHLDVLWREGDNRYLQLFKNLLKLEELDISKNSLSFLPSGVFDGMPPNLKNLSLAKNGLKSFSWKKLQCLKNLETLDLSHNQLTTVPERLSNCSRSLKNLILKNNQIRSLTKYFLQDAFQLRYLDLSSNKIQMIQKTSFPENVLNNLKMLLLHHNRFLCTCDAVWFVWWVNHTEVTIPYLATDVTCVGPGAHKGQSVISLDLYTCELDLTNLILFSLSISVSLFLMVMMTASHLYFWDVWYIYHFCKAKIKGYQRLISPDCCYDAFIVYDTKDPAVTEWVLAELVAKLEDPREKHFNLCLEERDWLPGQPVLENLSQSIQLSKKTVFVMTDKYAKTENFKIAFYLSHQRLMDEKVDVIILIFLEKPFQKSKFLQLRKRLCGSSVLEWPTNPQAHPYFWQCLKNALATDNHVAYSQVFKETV
In words: NFκB-luciferase reporter assay in transfected HEK 293 cells, mutant TLR7 (pCMVhuTLR7Δ2). The data set is classed as cell-based. Also on record: fold lower concentration sufficient for full activation of mutant TLR7 versus wild-type TLR7: dose or concentration left out as unconfirmed. An excerpt:
(§1) ID NO: 11) and the antisense primer [NT] ID NO: 12). […] The mutation was confirmed by DNA sequencing. […] Wells without agonist served as negative controls.
A general note: A reporter such as luciferase makes a cellular process visible.

Data set [2] has as its system mutant TLR7 containing a deletion in the second LRR. The data set is described as above. The data set is classed as cell-based, human. Set-up: fold lower concentration sufficient for full activation of mutant TLR7 versus wild-type TLR7: dose or concentration left out as unconfirmed.
Description: as §1

The next data set deals with T2, wild-type TLR7 (Homo sapiens, UniProt Q9NYK1).
T2 construct: expressed in transfected cells; host or cells: HEK 293
T2 sequence (Q9NYK1 27-1049): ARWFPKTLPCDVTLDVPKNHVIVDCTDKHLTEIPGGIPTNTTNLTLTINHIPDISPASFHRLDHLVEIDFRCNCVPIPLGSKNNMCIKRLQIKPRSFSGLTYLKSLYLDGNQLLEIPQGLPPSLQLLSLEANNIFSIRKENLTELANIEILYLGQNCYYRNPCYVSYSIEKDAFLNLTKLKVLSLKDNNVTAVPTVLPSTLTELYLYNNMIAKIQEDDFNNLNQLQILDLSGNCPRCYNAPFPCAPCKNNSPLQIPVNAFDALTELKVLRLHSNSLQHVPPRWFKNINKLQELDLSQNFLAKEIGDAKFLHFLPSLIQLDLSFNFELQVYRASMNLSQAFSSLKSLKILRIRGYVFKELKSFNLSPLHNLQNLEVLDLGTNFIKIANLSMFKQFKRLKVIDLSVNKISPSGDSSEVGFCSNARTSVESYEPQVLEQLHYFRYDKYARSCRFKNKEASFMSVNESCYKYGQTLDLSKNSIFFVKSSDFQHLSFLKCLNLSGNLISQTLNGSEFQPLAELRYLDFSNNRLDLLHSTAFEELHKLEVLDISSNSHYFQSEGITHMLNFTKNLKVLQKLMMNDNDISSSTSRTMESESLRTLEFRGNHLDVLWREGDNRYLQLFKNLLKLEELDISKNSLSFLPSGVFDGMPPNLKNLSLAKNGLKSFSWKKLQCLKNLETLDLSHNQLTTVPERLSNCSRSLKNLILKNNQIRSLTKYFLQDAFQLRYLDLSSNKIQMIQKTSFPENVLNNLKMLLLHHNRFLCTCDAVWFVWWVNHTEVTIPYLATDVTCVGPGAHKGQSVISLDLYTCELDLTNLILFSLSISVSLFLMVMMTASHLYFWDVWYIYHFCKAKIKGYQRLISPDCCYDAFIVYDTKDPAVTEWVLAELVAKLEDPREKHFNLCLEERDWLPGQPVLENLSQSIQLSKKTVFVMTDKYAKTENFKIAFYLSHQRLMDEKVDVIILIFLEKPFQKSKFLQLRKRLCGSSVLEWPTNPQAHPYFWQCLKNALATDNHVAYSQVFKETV
Briefly: NFκB-luciferase reporter assay in transfected HEK 293 cells, wild-type TLR7. The data set is classed as cell-based. From the text:
(§2) Wells without agonist served as negative controls.

Data set [3] addresses T3, mutant TLR8 containing a deletion in the second LRR (Homo sapiens, UniProt Q9NR97, DEL100-104).
T3 construct: expressed in transfected cells; host or cells: HEK 293
T3 sequence (Q9NR97 with tags, fused parts or gaps DEL100-104): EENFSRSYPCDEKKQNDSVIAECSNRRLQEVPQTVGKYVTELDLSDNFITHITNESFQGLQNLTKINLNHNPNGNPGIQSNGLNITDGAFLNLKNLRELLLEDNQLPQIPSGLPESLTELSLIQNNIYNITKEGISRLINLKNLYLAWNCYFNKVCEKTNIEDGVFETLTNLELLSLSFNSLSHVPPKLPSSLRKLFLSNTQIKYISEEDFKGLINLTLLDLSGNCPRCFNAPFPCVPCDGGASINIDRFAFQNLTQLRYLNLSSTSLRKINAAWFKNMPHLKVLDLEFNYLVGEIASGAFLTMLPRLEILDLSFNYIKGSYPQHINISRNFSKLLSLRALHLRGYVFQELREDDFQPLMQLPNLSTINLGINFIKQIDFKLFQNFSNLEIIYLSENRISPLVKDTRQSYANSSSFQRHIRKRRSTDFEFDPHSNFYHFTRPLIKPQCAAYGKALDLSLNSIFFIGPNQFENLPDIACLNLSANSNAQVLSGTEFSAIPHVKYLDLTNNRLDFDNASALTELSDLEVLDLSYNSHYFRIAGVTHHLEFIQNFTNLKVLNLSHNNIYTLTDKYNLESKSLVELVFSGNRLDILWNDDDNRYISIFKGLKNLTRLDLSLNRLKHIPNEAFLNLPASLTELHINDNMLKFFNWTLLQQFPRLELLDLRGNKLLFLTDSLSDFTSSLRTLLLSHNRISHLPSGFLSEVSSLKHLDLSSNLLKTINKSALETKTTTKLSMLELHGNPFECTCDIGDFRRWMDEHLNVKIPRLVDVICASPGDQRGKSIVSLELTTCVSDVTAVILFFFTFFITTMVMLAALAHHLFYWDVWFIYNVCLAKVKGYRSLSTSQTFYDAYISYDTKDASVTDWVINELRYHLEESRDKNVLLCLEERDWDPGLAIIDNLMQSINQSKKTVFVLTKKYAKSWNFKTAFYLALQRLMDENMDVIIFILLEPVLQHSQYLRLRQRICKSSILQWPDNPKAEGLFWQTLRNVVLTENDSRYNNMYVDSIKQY
In words: NFκB-luciferase reporter assay in transfected HEK 293 cells, mutant TLR8 (pCMVhuTLR8Δ2). The data set is classed as cell-based. The conditions noted are these: HEK 293, 5 h.
Description: The mutation was confirmed by DNA sequencing.
as §2

Another data set concerns the target T4, wild-type TLR8 (Homo sapiens, UniProt Q9NR97).
T4 construct: printed for the mutant only, inferred for the wild type (N); expressed in transfected cells; host or cells: HEK 293
T4 sequence (Q9NR97 1-1059 isoform Q9NR97-2): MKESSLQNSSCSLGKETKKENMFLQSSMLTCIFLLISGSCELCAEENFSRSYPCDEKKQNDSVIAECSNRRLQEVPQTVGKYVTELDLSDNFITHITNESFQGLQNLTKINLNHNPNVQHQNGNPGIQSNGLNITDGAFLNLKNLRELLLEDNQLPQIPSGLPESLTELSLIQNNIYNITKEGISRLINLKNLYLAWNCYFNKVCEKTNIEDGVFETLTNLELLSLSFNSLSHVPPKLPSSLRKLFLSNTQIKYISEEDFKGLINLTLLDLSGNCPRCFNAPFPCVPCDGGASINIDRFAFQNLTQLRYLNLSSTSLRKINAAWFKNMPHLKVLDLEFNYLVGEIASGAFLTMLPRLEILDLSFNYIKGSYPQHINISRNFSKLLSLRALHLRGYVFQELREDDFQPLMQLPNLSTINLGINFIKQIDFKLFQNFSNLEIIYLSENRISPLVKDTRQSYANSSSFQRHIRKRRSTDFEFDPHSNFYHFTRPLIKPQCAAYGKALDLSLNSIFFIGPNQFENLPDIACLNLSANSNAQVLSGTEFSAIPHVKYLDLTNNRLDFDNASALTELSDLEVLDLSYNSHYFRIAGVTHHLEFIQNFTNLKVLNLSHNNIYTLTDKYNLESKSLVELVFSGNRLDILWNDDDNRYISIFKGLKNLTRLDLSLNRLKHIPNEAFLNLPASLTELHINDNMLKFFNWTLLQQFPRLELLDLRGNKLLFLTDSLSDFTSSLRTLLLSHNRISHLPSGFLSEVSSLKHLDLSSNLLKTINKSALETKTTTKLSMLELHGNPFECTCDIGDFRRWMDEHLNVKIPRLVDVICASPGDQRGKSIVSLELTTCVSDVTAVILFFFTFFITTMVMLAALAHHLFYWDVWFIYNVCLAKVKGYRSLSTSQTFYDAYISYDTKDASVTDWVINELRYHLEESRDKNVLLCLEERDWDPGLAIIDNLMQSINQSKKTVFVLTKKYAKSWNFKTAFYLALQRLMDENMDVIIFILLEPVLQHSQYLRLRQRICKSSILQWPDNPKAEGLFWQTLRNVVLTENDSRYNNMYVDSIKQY
In words: NFκB-luciferase reporter assay in transfected HEK 293 cells, wild-type TLR8. The data set is classed as cell-based.
Description: as §2

For the compound `CCOCc1nc2c(N)nc3ccccc3c2n1CC(C)(C)O` [R848], in data set [1] (10 nM R848, HEK 293, 5 h, vs medium alone), the “induction of luciferase activity” value came to 6 fold. In addition, the “fold lower concentration sufficient for full activation of mutant TLR7 versus wild-type TLR7” value in data set [2] (compared with for wild-type TLR7) is on record as 10 fold. For the same compound, at wild-type TLR7 (10 nM R848, HEK 293, 5 h), the “activation of wild-type TLR7 (luciferase activity)” value is given as “did not result in significant activation”. In addition, the “concentration giving close-to-maximum activation of wild-type TLR7” value on wild-type TLR7 (HEK 293, NFκB-luciferase) stood at 1 µM. Further, the induction of luciferase in data set [3] (50 nm of R848) is around 10 fold. Besides, at wild-type TLR8 (HEK 293, NFκB-luciferase), the “concentration required to achieve 5-fold induction of luciferase” value is recorded as “at least 0.5 μM”.
Consider `C=CCn1c(=O)n([C@@H]2O[C@H](CO)[C@@H](O)[C@H]2O)c2nc(N)[nH]c(=O)c21` [loxoribine], for which the “concentration achieving the same activation with mutant TLR7” value in data set [1] (same activation as wild-type TLR7 at >0.5 mM) stood at 0.1 mM. The “fold lower concentration for same activation of mutant TLR7 versus wild-type TLR7” value in data set [2] (0.1 mM versus 0.5 mM) turned out to be 5 fold. At wild-type TLR7 (HEK 293, NFκB-luciferase), the “concentration at which wild-type TLR7 is activated” value was “greater than 0.5 mM”.
With `O=c1ccn([C@@H]2O[C@H](CO)[C@@H](O)[C@H]2O)c(=O)[nH]1` [uridine], in data set [3] (4.5 mM uridine), the “activation of mutant TLR8 (luciferase)” value was 15 fold. For the same compound, on wild-type TLR8 (4.5 mM uridine, HEK 293, 5 h), the “activation of wild-type TLR8 (luciferase)” value is 3 fold.
